Reference: ChEMBL document CHEMBL4396965

Tests used:
Format in all cases: cell-based
PBMC = experiment: (§1) Cytotoxicity against human PBMC cells; conditions: pbmc
CCRF-CEM = experiment: Cytotoxicity against human CEM cells
Vero = experiment: Cytotoxicity against African green monkey Vero cells; conditions: chlorocebus sabaeus
Huh-7 = experiment: Cytotoxicity against human HuH7 cells
A549 = experiment: Cytotoxicity against human A549 cells
[1] = as §1; conditions: PBMC cells

In the case of `Cn1cnc2c(N[C@H]3C4C=CC(CC4)[C@@H]3C(=O)O)nc(-c3c[nH]c4ncc(F)cc34)nc21` (some centres not stated), the CC50 (PBMC) is reported as over 100 µM, the CC50 (CCRF-CEM) is reported as 29.1 µM and the CC50 (Vero) is reported as over 100 µM. It also gave a CC50 (Huh-7) of over 100 µM and a CC50 (A549) of at least 100 µM.

Compound `O=C(O)[C@H]1C2C=CC(CC2)[C@@H]1Nc1cc2nncn2c(-c2c[nH]c3ncc(F)cc23)n1` (some centres not stated) has a CC50 (PBMC) of over 100 µM, a CC50 (CCRF-CEM) of 30.8 µM and a CC50 (Vero) of over 100 µM. It also gave a CC50 (Huh-7) of 71 µM and a CC50 (A549) of 51.9 µM.

With `O=C(O)[C@H]1C2C=CC(CC2)[C@@H]1Nc1nc2cnc(-c3c[nH]c4ncc(F)cc34)nc2s1` (some centres not stated) the CC50 (PBMC) was 84.8 µM, the CC50 (CCRF-CEM) was 17.3 µM and the CC50 (Vero) was 86.1 µM. It also gave a CC50 (Huh-7) of 70.2 µM and a CC50 (A549) of 31.3 µM.

`Cc1csc2c(N[C@H]3C4C=CC(CC4)[C@@H]3C(=O)O)nc(-c3c[nH]c4ncc(F)cc34)nc12` (some centres not stated) showed a CC50 (PBMC) of over 100 µM, a CC50 (CCRF-CEM) of over 100 µM and a CC50 (Vero) of over 100 µM. The CC50 (Huh-7) was over 100 µM and the CC50 (A549) was over 100 µM.

For `O=C(O)[C@H]1C2C=CC(CC2)[C@@H]1Nc1nc(-c2c[nH]c3ncc(F)cc23)nc2ccsc12` (some centres not stated), the CC50 (PBMC) was 64.6 µM, the CC50 (CCRF-CEM) was 31.6 µM and the CC50 (Vero) was 74.9 µM. For the same compound, the CC50 (Huh-7) was 68.7 µM and the CC50 (A549) was 14.7 µM.

`Cn1cnc2nc(-c3c[nH]c4ncc(F)cc34)nc(N[C@H]3C4C=CC(CC4)[C@@H]3C(=O)O)c21` (some centres not stated) gave a CC50 (PBMC) of over 100 µM, a CC50 (CCRF-CEM) of over 100 µM and a CC50 (Vero) of over 100 µM. For the same compound, the CC50 (Huh-7) was over 100 µM and the CC50 (A549) was over 100 µM.

In the case of `O=C(O)[C@H]1C2C=CC(CC2)[C@@H]1Nc1nc(-c2c[nH]c3ncc(F)cc23)nc2sccc12` (some centres not stated), the CC50 (PBMC) is reported as 9.3 µM, the CC50 (CCRF-CEM) is reported as 4.2 µM and the CC50 (Vero) is reported as 65.9 µM. It also gave a CC50 (Huh-7) of 24 µM and a CC50 (A549) of 14.5 µM.

`O=C(O)[C@H]1C2C=CC(CC2)[C@@H]1Nc1nc(-c2n[nH]c3ncc(F)cc23)nc2ccsc12` (some centres not stated) gave a CC50 (PBMC) of over 100 µM, a CC50 (CCRF-CEM) of 67 µM and a CC50 (Vero) of 52.5 µM. The CC50 (Huh-7) was 70.7 µM and the CC50 (A549) was 32.5 µM.

In the case of `O=C(O)[C@H]1C2CCC(C3CC32)[C@@H]1Nc1nc(-c2c[nH]c3ncc(F)cc23)ncc1F` (some centres not stated), the CC50 (PBMC) is reported as over 100 µM, the CC50 (CCRF-CEM) is reported as 62.9 µM and the CC50 (Vero) is reported as over 100 µM. It also gave a CC50 (A549) of 94.6 µM.

Compound `O=C(O)[C@H]1C2C=CC(CC2)[C@@H]1c1nnc2c(F)cnc(-c3c[nH]c4ncc(F)cc34)n12` (some centres not stated) has a CC50 (PBMC) of at least 100 µM, a CC50 (CCRF-CEM) of 41.7 µM and a CC50 (Vero) of at least 100 µM. For the same compound, the CC50 (Huh-7) was at least 100 µM and the CC50 (A549) was 65.4 µM.

Work on `O=C(O)[C@H]1C2C=CC(CC2)[C@@H]1Nc1nc(-c2c[nH]c3ncc(F)cc23)ncc1F` (some centres not stated) yielded a CC50 [1] of over 100 µM, a CC50 (CCRF-CEM) of 91.1 µM and a CC50 (Vero) of over 100 µM.

In the case of `O=C(O)[C@H]1C2C=CC(CC2)[C@@H]1Nc1nc(-c2n[nH]c3ncc(F)cc23)nc2sccc12` (some centres not stated), the CC50 (PBMC) is reported as over 100 µM, the CC50 (CCRF-CEM) is reported as 13.7 µM and the CC50 (Vero) is reported as over 100 µM. The CC50 (Huh-7) was 62.7 µM and the CC50 (A549) was over 100 µM.

`O=C(O)[C@H]1C2C=CC(C2)[C@@H]1Nc1nc(-c2c[nH]c3ncc(F)cc23)ncc1F` (some centres not stated) gave a CC50 (PBMC) of over 100 µM, a CC50 (CCRF-CEM) of over 100 µM and a CC50 (Vero) of over 100 µM. For the same compound, the CC50 (Huh-7) was over 100 µM and the CC50 (A549) was over 100 µM.

Work on `Cc1cc2nc(-c3c[nH]c4ncc(F)cc34)nc(N[C@H]3C4C=CC(CC4)[C@@H]3C(=O)O)c2s1` (some centres not stated) yielded a CC50 (PBMC) of 78.4 µM, a CC50 (CCRF-CEM) of 12.9 µM and a CC50 (Vero) of 90.3 µM. The CC50 (Huh-7) was 31.2 µM and the CC50 (A549) was 41.7 µM.

Compound `O=C(O)C12CC3CC(CC(Nc4nc(-c5c[nH]c6ncc(F)cc56)ncc4F)(C3)C1)C2` has a CC50 (PBMC) of 23.1 µM, a CC50 (CCRF-CEM) of 10.1 µM and a CC50 (Vero) of 30.3 µM. For the same compound, the CC50 (Huh-7) was 14.3 µM and the CC50 (A549) was 16.2 µM.

`O=C(O)[C@H]1C2C=CC(CC2)[C@@H]1Nc1nc(-c2n[nH]c3ncc(F)cc23)ncc1F` (some centres not stated) gave a CC50 (PBMC) of over 100 µM, a CC50 (CCRF-CEM) of 48.9 µM and a CC50 (Vero) of over 100 µM. It also gave a CC50 (Huh-7) of 83 µM and a CC50 (A549) of 30.6 µM.

`O=C(O)[C@H]1C2CCC(CC2)[C@@H]1Nc1nc(-c2c[nH]c3ncc(F)cc23)ncc1F` [PIMODIVIR] showed a CC50 (PBMC) of over 100 µM, a CC50 (CCRF-CEM) of 48.9 µM and a CC50 (Vero) of over 100 µM. For the same compound, the CC50 (Huh-7) was 95.8 µM and the CC50 (A549) was 20 µM.
